Results from patent US5064860A, “Method of inhibiting superoxide generation” (G. D. Searle & Co., priority 1990, dated 1991).
Entries after “also recorded” stand apart in the source; their conditions may differ. Like-named read-outs stand apart in the source and are kept apart here.

Experiments:
[1] = tested on: FMLP-stimulated human neutrophils; experiment: Human neutrophil superoxide generation, FMLP-stimulated (cytochrome C reduction); assay type: cell-based; settings: for IC50: read-out: Inhibition of FMLP Induced Superoxide IC50
Experimental: Human neutropil suproxide generation: Superoxide generation by formyl-methionyl-leucyl-phenylalanine (FMLP)-stimulated neutrophils was quantitated by the reduction of cytochrome C (Badwey, J. A., Curnutte, J. T. and Karnovsky, M. L., cis-Polyunsaturated fatty acids induce high levels of superoxide production by human neutrophils. J. Biol. Chem. 256: 12640-12643, 1981.) To 5 million neutrophils in 2.85 ml of Krebs-Ringer phosphate buffer, pH 7.2, 50 μl of inhibitor (in 10% DMSO/buffer), and 50 ul ferricytochrome C (5 mM, stock) were added and preincubated for 3 minutes at 37° C. Absorption measurements at 550 nm were recorded at start of preincubation. Fifty ul FMLP (6 uM, stock) was added to initiate reaction. A plateau was reached within 3 minutes and this reading--initial reading (before addition of FMLP) was used to calculate nanomoles of superoxide generated based on a molar extinction coefficient of 2.1×10^4 cm^-1 mole^-1.
Isolation of human neutrophils: Human neutrophils were isolated from freshly drawn blood of healthy donors. Two ml of 5% dextran (MW 200,000-300,000) in saline was added to 10 ml aliquots of blood, mixed and placed upright for 45 min. at 37° C. Approx. 8-10 ml of the plasma-white cell suspension from the dextran sedimentation was layered on 3 ml of Ficol-paque in a ml tube and centrifuged at 400 g for 30 min. The supernate, containing plasma and platelets, was discarded by aspiration, and the pellet, containing predominantly neutrophils, was resuspended in 1 ml saline. The suspension was transferred to a clean tube, and pooled with other aliquots of blood treated similarly. The pooled suspension was centrifuged at 350 g for 5 min. and supernate discarded. The pellet was resuspended in 5 ml of 0.05% NaCl with a plastic Pasteur pipette for 25 seconds to lyse contaminating red cells, then 5 ml of 1.75% NaCl added to regain isotonicity. The red cell lysing procedure was repeated, the cells suspended in appropriate buffer (depending on assay) and counted.

5-lipoxygenase = biological target: T1, 5-lipoxygenase (Rattus norvegicus, UniProt P12527); experiment: Inhibition of 5-lipoxygenase, in vitro (5-HETE synthesis from [1-14C]-arachidonic acid, RBL-1 supernatant); assay type: biochemical; settings: for IC50: RBL-1 100,000×g supernatant
T1 construct: Rat Basophilic Leukemia Cell Homogenate (RBL-1) serves as a 5-lipoxygenase enzyme source; endogenous in cells; host or cells: RBL-1 (rat basophilic leukemia) cells, 100,000×g supernatant of homogenate
T1 sequence (P12527 1-673): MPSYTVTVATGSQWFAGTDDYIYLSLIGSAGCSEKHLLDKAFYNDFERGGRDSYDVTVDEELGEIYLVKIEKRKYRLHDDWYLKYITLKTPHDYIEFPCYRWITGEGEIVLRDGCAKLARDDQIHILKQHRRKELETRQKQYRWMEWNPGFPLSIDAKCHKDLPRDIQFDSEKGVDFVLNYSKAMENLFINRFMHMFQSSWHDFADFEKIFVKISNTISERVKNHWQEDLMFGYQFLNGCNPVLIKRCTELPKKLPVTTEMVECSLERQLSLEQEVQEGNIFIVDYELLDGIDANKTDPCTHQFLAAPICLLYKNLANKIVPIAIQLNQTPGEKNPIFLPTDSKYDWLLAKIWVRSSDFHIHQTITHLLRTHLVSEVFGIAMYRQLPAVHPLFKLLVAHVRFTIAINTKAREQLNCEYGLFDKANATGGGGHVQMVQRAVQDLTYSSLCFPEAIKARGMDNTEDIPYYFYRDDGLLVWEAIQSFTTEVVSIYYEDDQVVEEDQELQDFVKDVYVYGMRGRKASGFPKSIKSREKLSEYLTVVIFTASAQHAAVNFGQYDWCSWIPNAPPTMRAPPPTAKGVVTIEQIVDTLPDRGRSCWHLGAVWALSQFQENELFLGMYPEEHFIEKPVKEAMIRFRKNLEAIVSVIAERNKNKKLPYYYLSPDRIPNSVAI
Experimental: Inhibition of 5-lipoxygenase, in vitro:
anti-inflammatory, anti-allergy activities.
The 100,000×g supernatant fraction of Rat Basophilic Leukemia Cell Homogenate (RBL-1) serves as a 5-lipoxygenase enzyme source. The enzyme is incubated with [1-^14 C)-arachidonic acid and Ca++ in the presence and absence of test compound. The product of 5-lipoxygenase, 5-hydroxyeicosatetraenoic acid (5-HETE), is separated by thin-layer chromatography and measured by radioactivity. A compound inhibiting 5-HETE synthesis by 30% or more is considered active at that concentration.

[2] = Neutrophil, human neutrophils, FMLP

IC50 [1, 2] | IC50 (5-lipoxygenase) | Compound | also measured
11 µM | 4.9 µM | C[C@H](Sc1cc(C(C)(C)C)c(O)c(C(C)(C)C)c1)[C@@H](C)OCC(=O)O (relative stereo) [Example 9, 11, (±)[2S*-[[3,5-bis(1,1-dimethyl-ethyl)-4-hydroxyphenyl]thio]-1R*-methylpropoxy]acetic acid] | 
~50 µM |  | C[C@@H](OCC(=O)O)[C@H](C)[S+]([O-])c1cc(C(C)(C)C)c(O)c(C(C)(C)C)c1 (relative stereo) [Example 12, (±)[2S*-[[3,5-bis(1,1-dimethylethyl)-4-hydroxyphenyl]sulfinyl]-1R*- methylpropoxy]acetic acid] | inhibition at 100 µM (5-lipoxygenase): 12%
~30 µM |  | C[C@@H](OCC(=O)O)[C@H](C)S(=O)(=O)c1cc(C(C)(C)C)c(O)c(C(C)(C)C)c1 (relative stereo) [Example 13, (±)[2S*-[[3,5-bis(1,1-dimethylethyl)-4-hydroxyphenyl]sulfonyl]-1R*- methylpropoxy]acetic acid] | inhibition at 100 µM (5-lipoxygenase): 4%
 | 4.3 µM | C[C@H](Sc1cc(C(C)(C)C)c(O)c(C(C)(C)C)c1)[C@@H](C)OCC(=O)O (single isomer, unassigned) [Example 17, (-)[2S*-[[3,5-bis(1,1-dimethylethyl)-4-hydroxyphenyl]thio]-1R*-methylpropoxy]acetic acid] | IC50 ([1]; human neutrophils, FMLP): 10 µM
10 µM | 3.5 µM | C[C@H](Sc1cc(C(C)(C)C)c(O)c(C(C)(C)C)c1)[C@@H](C)OCC(=O)O (single isomer, unassigned) [Example 18, (+)[2S*-[[3,5-bis(1,1-dimethylethyl)-4-hydroxyphenyl]thio]-1R*-methylpropoxy]acetic acid] | 
5 µM | 3.3 µM | CC(C)(C)c1cc(SCCSCC(=O)O)cc(C(C)(C)C)c1O [Example 4, 5, [[2-[[3,5-bis(1,1-dimethylethyl)-4-hydroxyphenyl]thio]ethyl]thio]aceticacid] | 
 | 0.32 µM | CN(CCc1ccccn1)C(=O)CCSc1cc(C(C)(C)C)c(O)c(C(C)(C)C)c1 [Formula IV, reference compound] | activation at 5 µM ([1]; Homo sapiens, Neutrophil, at 5 μm, read-out: increase in superoxide generated by neutrophils): 50%; activation at 10 µM ([1]; Homo sapiens, Neutrophil, at 10 μm, read-out: increase in superoxide generated by neutrophils): 227%; FMLP Induced Superoxide, result in words ([1]; human neutrophils, FMLP): Stimulates; also recorded: did not inhibit superoxide generation; 5-lipoxygenase inhibition, result in words (5-lipoxygenase): inhibited 5-lipoxygenase
